This passage reports MIC results from ChEMBL document CHEMBL1137505, “Direct diazo-transfer reaction on beta-lactam: synthesis and preliminary biological activities of 6-triazolylpenicillanic acids” (2007).

As a reminder, the MIC is the smallest concentration in the dilution series that meets the test's criterion for growth inhibition. A higher MIC goes with a less susceptible organism.

In brackets after ≈: the same amount, converted by molar mass.

The first experiment has as its system Streptococcus pneumoniae. Description: Antibacterial activity against Streptococcus pneumoniae ATCC 49619. Format: functional.
Molecule `CC1(C)S[C@@H]2[C@H](n3cc(Cc4ccccc4)nn3)C(=O)N2[C@H]1C(=O)O` displayed an MIC of 4 µg/mL (≈ 11.2 µM).
On the same count and under the same terms, with `CC1(C)S[C@@H]2[C@H](n3cc(-c4ccccc4)nn3)C(=O)N2[C@H]1C(=O)O` the figure was 4 µg/mL (≈ 11.6 µM); with `CC1(C)S[C@@H]2[C@H](n3cc(-c4ccc(-c5ccccc5)cc4)nn3)C(=O)N2[C@H]1C(=O)O`, at least 8 µg/mL; with `CC1(C)S[C@@H]2[C@H](n3cc(C(O)c4ccccc4)nn3)C(=O)N2[C@H]1C(=O)O` (stereo partly drawn), over 8 µg/mL.
As to `CC1(C)S[C@@H]2[C@H](n3cc(-c4ccncc4)nn3)C(=O)N2[C@H]1C(=O)O`, the minimum inhibitory concentration (MIC) is over 8 µg/mL.
The molecule `CC1(C)S[C@@H]2[C@H](n3cc(-c4cccs4)nn3)C(=O)N2[C@H]1C(=O)O` gave a minimum inhibitory concentration (MIC) of 8 µg/mL (≈ 22.8 µM).
On the same count and under the same terms, with `CC1(C)S[C@@H]2[C@H](n3cc(C(O)c4ccc(-c5ccncc5)cc4)nn3)C(=O)N2[C@H]1C(=O)[O-].[Na+]` (stereo partly drawn) the figure was at least 8 µg/mL.
Still for that read-out and setting: as for `CC1(C)S[C@@H]2[C@H](n3cc(-c4ccccc4-c4ccccc4)nn3)C(=O)N2[C@H]1C(=O)O`, the figure is over 8 µg/mL; as for `CC1(C)S[C@@H]2[C@H](n3cc(-c4cccc(-c5ccccc5)c4)nn3)C(=O)N2[C@H]1C(=O)O`, over 8 µg/mL.
Still for that read-out and setting: with `CC1(C)S[C@@H]2[C@H](n3cc(-c4ccccn4)nn3)C(=O)N2[C@H]1C(=O)O` the figure was over 8 µg/mL.
`CC1(C)S[C@@H]2[C@H](n3cc(-c4cccnc4)nn3)C(=O)N2[C@H]1C(=O)O` returned a minimum inhibitory concentration (MIC) of over 8 µg/mL.
The same measure, in the same setting: as for `CC1(C)S[C@@H]2[C@H](n3cc(-c4ccc(-c5ccncc5)cc4)nn3)C(=O)N2[C@H]1C(=O)O`, the figure is over 8 µg/mL.
The same measure, in the same setting: with `COc1cccc(OC)c1-c1cn([C@@H]2C(=O)N3[C@@H]2SC(C)(C)[C@@H]3C(=O)O)nn1` the figure was over 8 µg/mL.

Another experiment has as its system Escherichia coli. Kind of experiment: Antibacterial activity against Escherichia coli ATCC 25922. The format is functional.
`CC1(C)S[C@@H]2[C@H](n3cc(Cc4ccccc4)nn3)C(=O)N2[C@H]1C(=O)O` registered an MIC of over 8 µg/mL.
Same read-out and setting: with `CC1(C)S[C@@H]2[C@H](NC(=O)Cc3ccccc3)C(=O)N2[C@H]1C(=O)O` [PENICILLIN G] the figure was over 2 µg/mL; with `CC1(C)S[C@@H]2[C@H](n3cc(-c4ccccc4)nn3)C(=O)N2[C@H]1C(=O)O`, over 8 µg/mL.
On the same count and under the same terms, with `CC1(C)S[C@@H]2[C@H](n3cc(-c4ccc(-c5ccccc5)cc4)nn3)C(=O)N2[C@H]1C(=O)O` the figure was over 8 µg/mL; with `CC1(C)S[C@@H]2[C@H](n3cc(C(O)c4ccccc4)nn3)C(=O)N2[C@H]1C(=O)O` (stereo partly drawn), over 8 µg/mL; with `CCN1CCN(C(=O)N[C@@H](C(=O)N[C@@H]2C(=O)N3[C@@H]2SC(C)(C)[C@@H]3C(=O)O)c2ccccc2)C(=O)C1=O` [PIPERACILLIN], 4 µg/mL (≈ 7.73 µM).
Still for that read-out and setting: as for `CC1(C)S[C@@H]2[C@H](n3cc(-c4ccncc4)nn3)C(=O)N2[C@H]1C(=O)O`, the figure is over 8 µg/mL.
As to `CC1(C)S[C@@H]2[C@H](n3cc(-c4cccs4)nn3)C(=O)N2[C@H]1C(=O)O`, the minimum inhibitory concentration (MIC) was over 8 µg/mL.
On the same count and under the same terms, as for `CC1(C)S[C@@H]2[C@H](n3cc(C(O)c4ccc(-c5ccncc5)cc4)nn3)C(=O)N2[C@H]1C(=O)[O-].[Na+]` (stereo partly drawn), the figure is over 8 µg/mL; as for `CC1(C)S[C@@H]2[C@H](n3cc(-c4ccccc4-c4ccccc4)nn3)C(=O)N2[C@H]1C(=O)O`, over 8 µg/mL; as for `CC1(C)S[C@@H]2[C@H](n3cc(-c4cccc(-c5ccccc5)c4)nn3)C(=O)N2[C@H]1C(=O)O`, over 8 µg/mL.
On the same count and under the same terms, with `CC1(C)S[C@@H]2[C@H](n3cc(-c4ccccn4)nn3)C(=O)N2[C@H]1C(=O)O` the figure was over 8 µg/mL; with `CC1(C)S[C@@H]2[C@H](n3cc(-c4cccnc4)nn3)C(=O)N2[C@H]1C(=O)O`, over 8 µg/mL; with `CC1(C)S[C@@H]2[C@H](n3cc(-c4ccc(-c5ccncc5)cc4)nn3)C(=O)N2[C@H]1C(=O)O`, over 8 µg/mL.
Still for that read-out and setting: with `COc1cccc(OC)c1-c1cn([C@@H]2C(=O)N3[C@@H]2SC(C)(C)[C@@H]3C(=O)O)nn1` the figure was over 8 µg/mL.

In another experiment the test system is Staphylococcus aureus. Kind of experiment: Antibacterial activity against Staphylococcus aureus ATCC 29213. The format is functional.
Consider `CC1(C)S[C@@H]2[C@H](n3cc(Cc4ccccc4)nn3)C(=O)N2[C@H]1C(=O)O`, for which the MIC was over 8 µg/mL.
In turn, `CC1(C)S[C@@H]2[C@H](NC(=O)Cc3ccccc3)C(=O)N2[C@H]1C(=O)O` [PENICILLIN G] gave an MIC of 1 µg/mL (≈ 2.99 µM).
Same read-out and setting: with `CC1(C)S[C@@H]2[C@H](n3cc(-c4ccccc4)nn3)C(=O)N2[C@H]1C(=O)O` the figure was over 8 µg/mL.
Still for that read-out and setting: as for `CC1(C)S[C@@H]2[C@H](n3cc(-c4ccc(-c5ccccc5)cc4)nn3)C(=O)N2[C@H]1C(=O)O`, the figure is over 8 µg/mL.
Same read-out and setting: with `CC1(C)S[C@@H]2[C@H](n3cc(C(O)c4ccccc4)nn3)C(=O)N2[C@H]1C(=O)O` (stereo partly drawn) the figure was over 8 µg/mL; with `CCN1CCN(C(=O)N[C@@H](C(=O)N[C@@H]2C(=O)N3[C@@H]2SC(C)(C)[C@@H]3C(=O)O)c2ccccc2)C(=O)C1=O` [PIPERACILLIN], 2 µg/mL (≈ 3.86 µM); with `CC1(C)S[C@@H]2[C@H](n3cc(-c4ccncc4)nn3)C(=O)N2[C@H]1C(=O)O`, over 8 µg/mL.
For the molecule `CC1(C)S[C@@H]2[C@H](n3cc(-c4cccs4)nn3)C(=O)N2[C@H]1C(=O)O`, the minimum inhibitory concentration (MIC) is over 8 µg/mL.
The same measure, in the same setting: as for `CC1(C)S[C@@H]2[C@H](n3cc(C(O)c4ccc(-c5ccncc5)cc4)nn3)C(=O)N2[C@H]1C(=O)[O-].[Na+]` (stereo partly drawn), the figure is over 8 µg/mL; as for `CC1(C)S[C@@H]2[C@H](n3cc(-c4ccccc4-c4ccccc4)nn3)C(=O)N2[C@H]1C(=O)O`, over 8 µg/mL.
`CC1(C)S[C@@H]2[C@H](n3cc(-c4cccc(-c5ccccc5)c4)nn3)C(=O)N2[C@H]1C(=O)O` came in with a minimum inhibitory concentration (MIC) of over 8 µg/mL.
On the same count and under the same terms, as for `CC1(C)S[C@@H]2[C@H](n3cc(-c4ccccn4)nn3)C(=O)N2[C@H]1C(=O)O`, the figure is over 8 µg/mL; as for `CC1(C)S[C@@H]2[C@H](n3cc(-c4cccnc4)nn3)C(=O)N2[C@H]1C(=O)O`, over 8 µg/mL; as for `CC1(C)S[C@@H]2[C@H](n3cc(-c4ccc(-c5ccncc5)cc4)nn3)C(=O)N2[C@H]1C(=O)O`, over 8 µg/mL.
Still for that read-out and setting: as for `COc1cccc(OC)c1-c1cn([C@@H]2C(=O)N3[C@@H]2SC(C)(C)[C@@H]3C(=O)O)nn1`, the figure is over 8 µg/mL.

In another experiment the test system is Bacillus anthracis. Description: Antibacterial activity against Bacillus anthracis AMES. Format: functional.
`CC1(C)S[C@@H]2[C@H](n3cc(Cc4ccccc4)nn3)C(=O)N2[C@H]1C(=O)O` showed a minimum inhibitory concentration (MIC) of over 8 µg/mL.
On the same count and under the same terms, with `CC1(C)S[C@@H]2[C@H](NC(=O)Cc3ccccc3)C(=O)N2[C@H]1C(=O)O` [PENICILLIN G] the figure was at most 0.125 µg/mL.
The same measure, in the same setting: as for `CC1(C)S[C@@H]2[C@H](n3cc(-c4ccccc4)nn3)C(=O)N2[C@H]1C(=O)O`, the figure is over 8 µg/mL.
`CC1(C)S[C@@H]2[C@H](n3cc(-c4ccc(-c5ccccc5)cc4)nn3)C(=O)N2[C@H]1C(=O)O`: the MIC was over 8 µg/mL.
Still for that read-out and setting: as for `CC1(C)S[C@@H]2[C@H](n3cc(C(O)c4ccccc4)nn3)C(=O)N2[C@H]1C(=O)O` (stereo partly drawn), the figure is over 8 µg/mL; as for `CCN1CCN(C(=O)N[C@@H](C(=O)N[C@@H]2C(=O)N3[C@@H]2SC(C)(C)[C@@H]3C(=O)O)c2ccccc2)C(=O)C1=O` [PIPERACILLIN], 1 µg/mL (≈ 1.93 µM).
`CC1(C)S[C@@H]2[C@H](n3cc(-c4ccncc4)nn3)C(=O)N2[C@H]1C(=O)O` displayed a minimal inhibitory concentration (MIC) of over 8 µg/mL.
On the same count and under the same terms, with `CC1(C)S[C@@H]2[C@H](n3cc(-c4cccs4)nn3)C(=O)N2[C@H]1C(=O)O` the figure was over 8 µg/mL; with `CC1(C)S[C@@H]2[C@H](n3cc(C(O)c4ccc(-c5ccncc5)cc4)nn3)C(=O)N2[C@H]1C(=O)[O-].[Na+]` (stereo partly drawn), at least 8 µg/mL; with `CC1(C)S[C@@H]2[C@H](n3cc(-c4ccccc4-c4ccccc4)nn3)C(=O)N2[C@H]1C(=O)O`, over 8 µg/mL.
The same measure, in the same setting: as for `CC1(C)S[C@@H]2[C@H](n3cc(-c4cccc(-c5ccccc5)c4)nn3)C(=O)N2[C@H]1C(=O)O`, the figure is over 8 µg/mL; as for `CC1(C)S[C@@H]2[C@H](n3cc(-c4ccccn4)nn3)C(=O)N2[C@H]1C(=O)O`, over 8 µg/mL; as for `CC1(C)S[C@@H]2[C@H](n3cc(-c4cccnc4)nn3)C(=O)N2[C@H]1C(=O)O`, over 8 µg/mL.
The same measure, in the same setting: as for `CC1(C)S[C@@H]2[C@H](n3cc(-c4ccc(-c5ccncc5)cc4)nn3)C(=O)N2[C@H]1C(=O)O`, the figure is over 8 µg/mL; as for `COc1cccc(OC)c1-c1cn([C@@H]2C(=O)N3[C@@H]2SC(C)(C)[C@@H]3C(=O)O)nn1`, over 8 µg/mL.
